Experimental data taken from PMC11597167, “Evaluation of Selected Plant Phenolics via Beta-Secretase-1 Inhibition, Molecular Docking, and Gene Expression Related to Alzheimer’s Disease” (Pharmaceuticals, 2024).
Read-outs that look alike come from different tables or passages of the source.

Columns and labels:
human recombinant BACE1 = human recombinant BACE1 (Homo sapiens, UniProt P56817); assay: biochemical; format: biochemical; details: n: 3; for BACE1 Inhibition (Inhibition% ± SD): 10 mM stock concentration; for IC50: BACE1
Chain of human recombinant BACE1 (P56817 46-501): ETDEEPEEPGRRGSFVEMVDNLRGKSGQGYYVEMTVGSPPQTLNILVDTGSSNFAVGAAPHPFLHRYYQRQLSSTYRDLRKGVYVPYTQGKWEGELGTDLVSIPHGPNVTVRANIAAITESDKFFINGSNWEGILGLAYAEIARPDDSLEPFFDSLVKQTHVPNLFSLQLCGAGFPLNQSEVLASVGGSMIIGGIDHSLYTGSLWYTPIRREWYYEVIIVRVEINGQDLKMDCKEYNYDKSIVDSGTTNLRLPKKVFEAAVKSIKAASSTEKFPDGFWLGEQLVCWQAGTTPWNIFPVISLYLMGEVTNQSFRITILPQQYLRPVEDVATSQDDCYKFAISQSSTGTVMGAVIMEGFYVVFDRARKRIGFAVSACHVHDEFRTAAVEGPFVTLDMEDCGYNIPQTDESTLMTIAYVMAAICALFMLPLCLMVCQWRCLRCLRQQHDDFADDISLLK
Method: Fluorescence resonance energy transfer (FRET) technology was used to measure the enzymatic activity of BACE1, and measurements were performed by modifying previously used methods and the protocol included in the manufacturer’s (PanVera® Corporation, Madison, […], USA) assay kit. […] The inhibition rate was obtained using the following equation:Inhibition% = [1 − (B − B0)/(K − K0)] × 100
• K0 = fluorescence value of the control group at minute 0 • K = fluorescence value of the control group at 60 min • B0 = fluorescence value of the test compound at minute 0 • B = fluorescence value of the test compound at 60 min

[1] = system: SH-SY5Y human neuroblastoma cells; format: cell-based; details: 24 h
Method: SH-SY5Y, a human neuroblastoma cell line (purchased from ATCC®, Cat. No. CRL-2266™), was maintained in Dulbecco’s Modified Eagle Medium/Nutrient Mixture F-12 (DMEM/F-12) complemented with 10% heat-inactivated fetal bovine serum (FBS) and 1% penicillin–streptomycin after being processed for 30 min at 56 °C. Cells were cultivated in a sterile incubator at 37 °C with 5% CO2 and 95% relative humidity.
Cells were maintained in Dulbecco’s Modified Eagle’s Medium (DMEM)/nutrient mixture F-12 (DMEM/F-12) containing 1% penicillin–streptomycin supplemented with 10% fetal bovine serum (FBS) heat-inactivated at 56 °C for 30 min. Cells were cultured in a sterile incubator at 37 °C with 5% CO2 and 95% humidity. Then, 10,000 SH-SY5Y cells in 100 µL of complete medium were seeded in each well of a 96-well plate and incubated for 16–24 h for surface attachment. […] Then, 10 µL of filter-sterilized 0.015% resazurin solution (Sigma-Aldrich, R7017) was added to each well and incubated for 2 h at 37 °C with 5% CO2. Excitation at 560 nm wavelength and emission fluorescence at 590 nm wavelength were measured, and cell viability% was calculated compared to the control group.

TNF = assay: RT-PCR gene expression in SH-SY5Y cells; format: cell-based, human; details: 24 h at IC08, vs DMSO control, normalized to β-actin
Method: (§1) In the RNA isolation protocol, cell pellets were homogenized using 1 mL of TRIzol reagent and incubated for 5 min at room temperature. Chloroform (200 μL) was added, and the mixture was shaken vigorously and incubated for 3 min at room temperature. The mixture was then centrifuged at 10,000 rpm for 15 min at +4 °C, and the upper colorless phase was transferred to an RNase-free microcentrifuge tube. Isopropanol (500 μL) was added to the tube, and the mixture was incubated at room temperature for 10 min and centrifuged at 10,000 rpm for 10 min. The supernatant was removed, and the pellet was washed with at least 75% ethanol (1 mL) and centrifuged at 7500 rpm for 5 min at +4 °C. After removing all of the supernatant from the tube and air-drying the pellet, the RNA-containing pellet was dissolved in approximately 100 μL of nuclease-free water and incubated at 55 °C for 5 min. RNA was stored at -80 °C for long-term storage. cDNA synthesis was performed using the ABM, OneScript® Plus cDNA synthesis kit (Applied Biological Materials Inc. (abm), Richmond, BC, Canada). A mixture of RNA (2000 ng/μL), dNTPs (1 μL), oligo (dT) primer (1 μL), […], and up to 13 μL of nuclease-free water was prepared and incubated at 65 °C for 5 min as described in the protocol supplied with the kit. After incubating the mixture on ice for 1 min, 4 μL of 5X RT buffer and 1 μL of OneScript® Plus RTase were added to the tube. The mixture was incubated at 50 °C for 50 min and 85 °C for 5 min. cDNA was stored at -20 °C for long-term storage. Real-time PCR was performed using ABM, BlasTaqTM 2X qPCR MasterMix, and the CFX Connect real-time system. […] DMSO, the solvent for dissolving the phenolic compounds, was used as the control group. The Qiagen GeneGlobe Complimentary qPCR Data Analysis Portal (Redwood City, CA, USA), utilizing default parameters, was employed to calculate changes in gene expression. CT values were exported from the BioRad CFX Connect real-time qPCR system and normalized against a reference gene. The p-value was derived from a Student's t-test applied to the replicate 2^-ΔΔCT values for each gene in the comparisons between the control and test groups. The p-value calculation employed was derived from a parametric, unpaired, two-sample equal variance, two-tailed distribution, a method that is widely recognized in the scientific literature. Fold change calculations, representing gene expression ratios, were determined using the established ΔΔCT method as initially described by Livak and Schmittgen. […] Multiple groups were compared by ANOVA and Dunnet post hoc test.

PSEN1 = assay: RT-PCR gene expression in SH-SY5Y cells; format: cell-based, human; details: 24 h at IC08, vs DMSO control, normalized to β-actin
Method: as §1

CLU = assay: RT-PCR gene expression in SH-SY5Y cells; format: cell-based, human; details: 24 h at IC08, vs DMSO control, normalized to β-actin
Method: as §1

APOE = assay: RT-PCR gene expression in SH-SY5Y cells; format: cell-based, human; details: 24 h at IC08, vs DMSO control, normalized to β-actin
Method: as §1

ABCA7 = assay: RT-PCR gene expression in SH-SY5Y cells; format: cell-based, human; details: 24 h at IC08, vs DMSO control, normalized to β-actin
Method: as §1

CR1 = assay: RT-PCR gene expression in SH-SY5Y cells; format: cell-based, human; details: 24 h at IC08, vs DMSO control, normalized to β-actin
Method: as §1

APP = assay: RT-PCR gene expression in SH-SY5Y cells; format: cell-based, human; details: 24 h at IC08, vs DMSO control, normalized to β-actin
Method: as §1

CD33 = assay: RT-PCR gene expression in SH-SY5Y cells; format: cell-based, human; details: 24 h at IC08, vs DMSO control, normalized to β-actin
Method: as §1

CD2AP = assay: RT-PCR gene expression in SH-SY5Y cells; format: cell-based, human; details: 24 h at IC08, vs DMSO control, normalized to β-actin
Method: as §1

MMP9 = assay: RT-PCR gene expression in SH-SY5Y cells; format: cell-based, human; details: 24 h at IC08, vs DMSO control, normalized to β-actin
Method: as §1

PICALM = assay: RT-PCR gene expression in SH-SY5Y cells; format: cell-based, human; details: 24 h at IC08, vs DMSO control, normalized to β-actin
Method: as §1

BIN1 = assay: RT-PCR gene expression in SH-SY5Y cells; format: cell-based, human; details: 24 h at IC08, vs DMSO control, normalized to β-actin
Method: as §1

SORL1 = assay: RT-PCR gene expression in SH-SY5Y cells; format: cell-based, human; details: 24 h at IC08, vs DMSO control, normalized to β-actin
Method: as §1

CCL5 = assay: RT-PCR gene expression in SH-SY5Y cells; format: cell-based, human; details: 24 h at IC08, vs DMSO control, normalized to β-actin
Method: as §1

BACE1 = details: earlier study, cited from earlier work
BACT = assay: RT-PCR gene expression in SH-SY5Y cells (reference gene); format: cell-based, human; details: 24 h at IC08, β-actin, the normalizing reference gene
Method: as §1

APP/PS1 transgenic mice = system: APP/PS1 transgenic mice; parameters: method as in PMID 32913125; details: 6 months at 20 mg/kg b.w.; cited from earlier work
[2] = concentration with 8% inhibition (92% viability), SH-SY5Y, Mean ± SD
[3] = read-out: IC50 (inhibitory effect against BACE1)

SMILES	BACE1 Inhibition (Inhibition% ± SD) (human recombinant BACE1) [%]	IC50 (human recombinant BACE1) [µM]	IC08 Values [1, 2] [µM]	Fold Regulation TNF (TNF)	Fold Regulation PSEN1 (PSEN1)	Fold Regulation CLU (CLU)	Fold Regulation APOE (APOE)	Fold Regulation ABCA7 (ABCA7)	Fold Regulation CR1 (CR1)	Fold Regulation APP (APP)	Fold Regulation CD33 (CD33)	Fold Regulation CD2AP (CD2AP)	Fold Regulation MMP9 (MMP9)	Fold Regulation PICALM (PICALM)	Fold Regulation BIN1 (BIN1)	Fold Regulation SORL1 (SORL1)	Fold Regulation CCL5 (CCL5)	IC50 (BACE1; [3]) [µM]	Fold Regulation BACT (BACT)	IC08 Values ([1]; human) [µM]	also measured
OCCc1ccc(O)c(O)c1 [3-Hydroxytyrosol, 3-hydroxytyrosol]	45.33 ± 0.22	> 10000	278 ± 12.21	2.04	−1.08	1.15	−1.17	1.82	2.86	−1.07	2.88	1.36	4.38	1.21	1.87	1.81	3.61	0.035 ± 0.04	1.00		BACE1 Inhibition (Inhibition% ± SD) (human recombinant BACE1; listed as 3-hydroxytyrosol): below 50%
O=C(O[C@@H]1Cc2c(O)cc(O)cc2O[C@@H]1c1cc(O)c(O)c(O)c1)c1cc(O)c(O)c(O)c1 [EGCG, epigallocatechin gallate]			103 ± 12.47																		
O=C(O)c1cc(O)c(O)c(O)c1 [Gallic acid, 3,4,5-trihydroxybenzoic acid]	27.51 ± 2.97		187 ± 7.11	2.06	−1.11	−1.11	−1.07	1.55	2.20	1.15	2.40	1.15	3.14	1.22	1.16	1.65	1.92		1.00		BACE1 Inhibition (Inhibition% ± SD) (human recombinant BACE1; listed as gallic acid): below 50%; spatial reference learning and memory impairment (APP/PS1 transgenic mice): totally reversed
C/C=C1/[C@H](O[C@@H]2O[C@H](CO)[C@@H](O)[C@H](O)[C@H]2O)OC=C(C(=O)OC)[C@H]1CC(=O)OCCc1ccc(O)c(O)c1 [Oleuropein, oleuropein]	52.38 ± 2.08	9870 ± 1010		2.09	−1.07	−1.78	−1.33	2.42	3.45	1.05	3.88	1.31	5.31	1.43	−1.14	1.90	2.67	2.76 ± 0.23	1.00	171 ± 22.01	
O=c1c(O)c(-c2ccc(O)c(O)c2)oc2cc(O)cc(O)c12 [Quercetin, 3,3′,4′,5,7-pentahydroxyflavone, reference compound]	86.87 ± 4.48		27 ± 5.30																		
O=C(/C=C/c1ccc(O)c(O)c1)O[C@H](Cc1ccc(O)c(O)c1)C(=O)O [Rosmarinic acid, rosmarinic acid]	67.04 ± 0.64	4060 ± 680		1.75	1.55	1.11	1.45	−1.07	1.34	1.01	1.88	1.08	3.02	1.32	1.33	1.23	1.82		1.00	546 ± 31.55	IC50 (BACE1; read-out: IC50 (BACE1 inhibitory potential)): 21 µM
